# Test results taken from US10272110B2, “Methods for promoting HSC engraftment” (CHILDREN'S MEDICAL CENTER CORPORATION, priority 2006, dated 2019).
# Columns and labels:
# [1] = tested on: runx1/cmyb+ AGM HSCs; settings: 10 μM
# Procedure: A chemical genetic screen was conducted to identify novel pathways that modulate definitive HSC formation during zebrafish embryogenesis. FIG. 1. Genes such as runx1 and cmyb, required for HSC development during mammalian hematopoiesis, are expressed in the ventral wall of the dorsal aorta in a region analogous to the mammalian AGM at thirty-six hours post-fertilization (hpf). […] Wild-type embryos were incubated with individual compounds from the three-somite stage until thirty-six hpf. Probes for runx1 and cmyb were combined and utilized to detect HSCs by in situ hybridization.
# Wild-type age-matched embryos were arrayed into 48-well plates (˜5 embryos/well) of individual test compounds and exposed from 3-somites until 36 hpf. […] In situ hybridization for runx1 and cmyb was performed to assess HSCs. Compounds were retested at 10 μM, 20 μM, and 50 μM. Stem cell specificity was assessed using flk1 at 36 hpf. PGE2, PGI2, dmPGE2 and all cox inhibitors (Sigma) were used at 10 μM to 20 μM.
# Qualitative scoring (# embryos with altered HSCs/# scored) of runx1/cmyb was conducted using the following criteria: Normal/unchanged=continuous line of runx1/cmyb+ endothelial cells and occasional hematopoietic clusters. Decreased/absent=reduction in runx1/cmyb+ cells, including the presence of large gaps in the line of HSCs, isolated positive cells, or absence of expression. Increased/excess=enhancement in runx1/cmyb^+ cells, including many HSC clusters, a thickened line of HSCs, or ectopic expression.
# [2] = tested on: cmyb/lmo2+ HSCs; test: Confocal quantification of HSCs in cmyb:GFP x lmo2:dsRed bigenic embryos; type: in vivo, zebrafish
# Procedure: A long-acting derivative, 16,16-dimethyl-PGE2 (dmPGE2, 10 μM) caused an increase in runx1/cmyb+ AGM HSCs in 78% of embryos examined (97/124). AGM HSCs were inhibited by indomethacin (10 μM) treatment in 90% of embryos analyzed (92/102). […] Transgenic cmyb:GFP zebrafish with green fluorescent HSCs and myeloid progenitor cells were crossed to lmo2:dsRed fish that have red fluorescent endothelial cells and HSCs to visualize the effects of chemical exposure in vivo. […] FIG. 3.
# Live 36 hpf treated bigenic zebrafish embryos were embedded in 1% low-melting point agarose containing 0.4 mg/ml Tricaine-S for confocal imaging. cmyb-GFP transgenic reporter lines were created from a BAC containing the cmyb promoter genomic sequence (Galloway, Zhu, Lin, Zon, unpublished); lmo2:DsRed fish were created as described^27. For HSC quantification, cmyb/lmo2+ positive cells were counted in projections of z-stack images (n=10/treatment).
compound,measurement,setting,value
"CCCCC(C)(C)[C@H](O)/C=C/[C@H]1[C@H](O)CC(=O)[C@@H]1C/C=C\CCCC(=O)O [dmPGE2, 16,16-dimethyl-PGE2]",embryos with increase in runx1/cmyb+ AGM HSCs,[1],78%
same,increased runx1/cmyb+ HSCs (# embryos altered/# scored),[1]; 36 hpf,97/124
same,HSC numbers by confocal microscopy (mean±SD),"[2]; 10 μM, bigenic embryos, n=10/treatment, DMSO 23.3±5.0",38.0±2.2
same,HSC numbers along the floor of the aorta by confocal microscopy (in words),[2]; 36 hpf live embryos,significantly increased HSCs
